Each structure is given as a SMILES string.

One assay concerns the target RET kinase V804M (Homo sapiens, UniProt P07949, V804M). Description: RET Enzyme Assay (CisBio HTRF KinEASE-TK), V804M. The class given is biochemical. The following applies: read-out: RET V804M Enz FRET IC50.
The target in a further assay is RET kinase Wild Type (Homo sapiens, UniProt P07949). Description: biochemical.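 Also: HTRF kinase activity assay on RET enzyme, 1 h reaction at 22 °C, dual-wavelength readout as percent of control, DMSO-only wells as 100%, pre-quenched reactions as 0%.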
The target in a further assay is G810R mutant RET kinase (Homo sapiens, UniProt P07949, G810R). Put plainly: biochemical.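 Also: HTRF KinEASE-TK enzymatic assay with 1 nM recombinant RET G810R, 1 h at 22 °C, dual-wavelength ratiometric readout, 100% control without compound, 0% from pre-quenched reactions.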
The target in the next assay is G810S mutant RET kinase (Homo sapiens, UniProt P07949, G810S). Description: biochemical.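 Also: HTRF KinEASE-TK kinase assay with recombinant enzyme, 1 h at 22 °C, dual-wavelength ratiometric read-out, percent of control (DMSO-only = 100, pre-quenched reaction = 0).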
Sequence of G810S mutant RET kinase (P07949 29-1114 G810S): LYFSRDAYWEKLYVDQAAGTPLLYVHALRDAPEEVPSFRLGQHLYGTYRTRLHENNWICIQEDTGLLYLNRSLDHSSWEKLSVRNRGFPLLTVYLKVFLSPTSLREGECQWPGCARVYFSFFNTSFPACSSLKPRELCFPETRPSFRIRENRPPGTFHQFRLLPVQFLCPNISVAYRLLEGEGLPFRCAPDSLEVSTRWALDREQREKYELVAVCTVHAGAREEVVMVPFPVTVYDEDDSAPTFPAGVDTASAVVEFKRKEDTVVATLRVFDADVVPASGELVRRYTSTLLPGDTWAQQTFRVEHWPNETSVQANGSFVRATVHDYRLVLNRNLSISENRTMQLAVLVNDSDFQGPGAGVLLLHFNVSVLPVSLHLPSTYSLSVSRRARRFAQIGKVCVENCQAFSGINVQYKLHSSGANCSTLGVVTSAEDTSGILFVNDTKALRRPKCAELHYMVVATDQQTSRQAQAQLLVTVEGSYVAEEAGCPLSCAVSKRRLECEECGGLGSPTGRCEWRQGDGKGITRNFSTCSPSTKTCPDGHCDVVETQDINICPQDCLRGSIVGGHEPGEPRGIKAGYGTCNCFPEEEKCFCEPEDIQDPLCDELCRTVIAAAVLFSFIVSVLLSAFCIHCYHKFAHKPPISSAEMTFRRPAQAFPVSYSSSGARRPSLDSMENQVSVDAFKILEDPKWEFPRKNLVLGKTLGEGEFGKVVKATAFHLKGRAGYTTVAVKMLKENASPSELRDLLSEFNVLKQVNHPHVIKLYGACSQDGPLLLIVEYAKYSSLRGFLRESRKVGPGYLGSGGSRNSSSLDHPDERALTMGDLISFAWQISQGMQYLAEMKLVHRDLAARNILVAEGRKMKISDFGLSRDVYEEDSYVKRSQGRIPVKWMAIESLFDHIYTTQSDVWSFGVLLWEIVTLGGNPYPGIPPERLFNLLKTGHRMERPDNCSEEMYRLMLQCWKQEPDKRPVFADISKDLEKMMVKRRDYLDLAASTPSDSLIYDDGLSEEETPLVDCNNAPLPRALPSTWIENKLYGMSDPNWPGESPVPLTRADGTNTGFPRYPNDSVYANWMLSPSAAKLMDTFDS

Sequence of RET kinase Wild Type (P07949 29-1114): as the sequence (P07949 29-1114 G810S) above, with S782G counted along it
Sequence of G810R mutant RET kinase (P07949 29-1114 G810R): as the sequence (P07949 29-1114 G810S) above, with S782R counted along it
Sequence of RET kinase V804M (P07949 29-1114 V804M): as the sequence (P07949 29-1114 G810S) above, with V776M, S782G counted along it
Method for G810S mutant RET kinase: The potency of compounds inhibiting several different RET kinase forms (Wild Type, V804M, G810R, & G810S) were determined using CisBio's HTRF® KinEASE™-TK assay technology. […] After a 1 hour incubation at 22° C., the extent of reaction was determined using a PerkinElmer EnVision multimode plate reader via HTRF dual wavelength detection, and the percent of control (POC) was calculated using a ratiometric emission factor. One hundred POC was determined using DMSO only samples (no compound present), and 0 POC was determined using pre-quenched control reactions.
The potency of a compound inhibiting G810R or G810S mutant RET kinase was determined using CisBio's HTRF® KinEASE™-TK assay technology. The assays contained G810R or G810S mutant RET produced at Array Biopharma, Inc. (1 nM enzyme). […] After a 1-h incubation at 22° C., the extent of reaction was determined using a PerkinElmer EnVision multimode plate reader via HTRF dual wavelength detection, and the percent of control (POC) was calculated using a ratiometric emission factor. One hundred POC was determined using no test compounds, and 0 POC was determined using pre-quenched control reactions.

On to `CC(C)n1c2c(c3c(N)ncnc31)-c1noc(C3CC3)c1CN(C(=O)C1CC1)C2` [Example 38, (11-amino-3-cyclopropyl-7-isopropyl-6,7-dihydroisoxazolo[4,3-c]pyrimido[5′,4′:4,5]pyrrolo[3,2-e]azepin-5(4H)-yl)(cyclopropyl)methanone], for which the half-maximal inhibitory concentration (IC50) at RET kinase V804M stood at 3120 nM; against RET kinase Wild Type it was 342 nM; against G810R mutant RET kinase, 649 nM; on G810S mutant RET kinase, 921 nM.
In the same order, the values of `CC(=O)N1CCC(n2c3c(c4c(N)ncnc42)-c2noc(C4CC4)c2C(O)CC3)C1` (stereo not shown) [Example 134, 1-(3-(11-amino-3-cyclopropyl-4-hydroxy-5,6-dihydroisoxazolo[4″,3″:6′,7′]cyclohepta[1′,2′:4,5]pyrrolo[2,3-d]pyrimidin-7(4H)-yl)pyrrolidin-1-yl)ethan-1-one 2,2,2-trifluoroacetate] are 355 nM, 112 nM, 560 nM and 488 nM.
Consider `COc1ccc(CCN2Cc3c(c4c(N)ncnc4n3C(C)C)-c3noc(C4CC4)c3C2=O)cc1` [Example 14, 11-amino-3-cyclopropyl-7-isopropyl-5-(4-methoxyphenethyl)-6,7-dihydroisoxazolo[4,3-c]pyrimido[5′,4′:4,5]pyrrolo[3,2-e]azepin-4(5H)-one], for which the IC50 at RET kinase V804M was found to be 865 nM; at RET kinase Wild Type, 112 nM; on G810R mutant RET kinase, 252 nM; on G810S mutant RET kinase, 293 nM.
In the same order, the values of `Nc1ncnc2c1c1c(n2C2CC(F)(F)C2)CCC(O)c2c-1noc2C1CC1` (stereo not shown) [Example 148, 11-amino-3-cyclopropyl-7-(3,3-difluorocyclobutyl)-4,5,6,7-tetrahydroisoxazolo[4″,3″:6′,7′]cyclohepta[1′,2′:4,5]pyrrolo[2,3-d]pyrimidin-4-ol 2,2,2-trifluoroacetate] are 216 nM, 183 nM, 154 nM and 758 nM.
The like results for `CC(C)n1c2c(c3c(N)ncnc31)-c1noc(C3CC3)c1C(=O)N(C1CCN(Cc3ccccc3)C1)C2` (stereo not shown) [Example 17, 11-amino-5-(1-benzylpyrrolidin-3-yl)-3-cyclopropyl-7-isopropyl-6,7-dihydroisoxazolo[4,3-c]pyrimido[5′,4′:4,5]pyrrolo[3,2-e]azepin-4(5H)-one] were, in that order, 241 nM, 49 nM, 533 nM and 433 nM.
In the same order, the values of `CC(C)(O)[C@H]1C[C@@H](n2c3c(c4c(N)ncnc42)-c2noc(C4CC4)c2C(O)CC3)C1` (stereo partly shown) [Example 138, 11-Amino-3-cyclopropyl-7-((1s,3s)-3-(2-hydroxypropan-2-yl)cyclobutyl)-4,5,6,7-tetrahydroisoxazolo[4″,3″:6′,7′]cyclohepta[1′,2′:4,5]pyrrolo[2,3-d]pyrimidin-4-ol 2,2,2-trifluoroacetate] are 376 nM, 143 nM, 272 nM and 646 nM.
`CNC1CCc2c(c3c(N)ncnc3n2C(C)C)-c2noc(C3CC3)c21` (stereo not shown) [Example 27, 3-cyclopropyl-7-isopropyl-N4-methyl-4,5,6,7-tetrahydroisoxazolo[4″,3″:6′,7′]cyclohepta[1′,2′:4,5]pyrrolo[2,3-d]pyrimidine-4,11-diamine]: the half-maximal inhibitory concentration (IC50) worked out at 595 nM on RET kinase V804M, 142 nM against RET kinase Wild Type, 308 nM against G810R mutant RET kinase and 581 nM against G810S mutant RET kinase.
Consider `CC(C)n1c2c(c3c(N)ncnc31)-c1cc3ccc(Cl)cc3n1C(=O)NC2` [Example 84, 1-amino-11-chloro-5-isopropyl-6,7-dihydropyrimido[5″,4″:4′,5′]pyrrolo[2′,3′: 5,6][1,3]diazepino[1,7-a]indol-8(5H)-one], for which the IC50 on RET kinase Wild Type is 182 nM; at G810R mutant RET kinase it was 244 nM; against G810S mutant RET kinase it was 634 nM.
Regarding `CC(C)n1c2c(c3c(N)ncnc31)-c1cc3ccc(C(F)(F)F)cc3n1C(=O)NC2` [Example 82, 1-amino-5-isopropyl-11-(trifluoromethyl)-6,7-dihydropyrimido[5″,4″:4′,5′]pyrrolo[2′,3′: 5,6][1,3]diazepino[1,7-a]indol-8(5H)-one], the half-inhibitory concentration (IC50) turned out to be 358 nM against RET kinase Wild Type, 420 nM at G810R mutant RET kinase and 821 nM against G810S mutant RET kinase.
The like results for `CC(C)n1c2c(c3c(N)ncnc31)-c1cc3ccc(C(=O)Nc4ccn(CC(=O)N(C)C)n4)cc3n1CCC2` [Example 99, 1-amino-N-(1-(2-(dimethylamino)-2-oxoethyl)-1H-pyrazol-3-yl)-5-isopropyl-5,6,7,8-tetrahydropyrimido[5″,4″:4′,5′]pyrrolo[3′,2′: 3,4]azepino[1,2-a]indole-11-carboxamide] were, in that order, 881 nM, 2210 nM and 3250 nM.
On to `CC(C)n1c2c(c3c(N)ncnc31)-c1cnn(C3CC3)c1C(=O)NC2` [Example 109, 11-amino-3-cyclopropyl-7-isopropyl-3,5,6,7-tetrahydro-4H-pyrazolo[3,4-c]pyrimido[5′,4′:4,5]pyrrolo[3,2-e]azepin-4-one 2,2,2-trifluoroacetate], for which the IC50 against RET kinase Wild Type stood at 1780 nM; against G810R mutant RET kinase, 1810 nM; at G810S mutant RET kinase it was 2270 nM.
Turning to `CCC(=O)N1Cc2c(noc2C2CC2)-c2c(n(C(C)C)c3ncnc(N)c23)C1` [Example 37, 1-(11-amino-3-cyclopropyl-7-isopropyl-6,7-dihydroisoxazolo[4,3-c]pyrimido[5′,4′:4,5]pyrrolo[3,2-e]azepin-5(4H)-yl)propan-1-one 2,2,2-trifluoroacetate], the IC50 against RET kinase Wild Type stood at 318 nM; at G810R mutant RET kinase, 1280 nM; on G810S mutant RET kinase, 1220 nM.
Regarding `CC(C)n1c2c(c3c(N)ncnc31)-c1cc3cc(C#N)ccc3n1C(=O)NC2` [Example 78, 1-amino-5-isopropyl-8-oxo-5,6,7,8-tetrahydropyrimido[5″,4″:4′,5′]pyrrolo[2′,3′: 5,6][1,3]diazepino[1,7-a]indole-12-carbonitrile], the values for the half-inhibitory concentration (IC50) at RET kinase Wild Type, against G810R mutant RET kinase and against G810S mutant RET kinase were 638 nM, 507 nM and 720 nM, respectively.
In the same order, the values of `Cc1ccc2cc3n(c2c1)C(=O)NCc1c-3c2c(N)ncnc2n1C(C)C` [Example 80, 1-amino-5-isopropyl-11-methyl-6,7-dihydropyrimido[5″,4″:4′,5′]pyrrolo[2′,3′: 5,6][1,3]diazepino[1,7-a]indol-8(5H)-one] are 195 nM, 320 nM and 404 nM.
In the same order, the values of `COc1ccc2cc3n(c2c1)C(=O)NCc1c-3c2c(N)ncnc2n1C(C)C` [Example 79, 1-amino-5-isopropyl-11-methoxy-6,7-dihydropyrimido[5″,4″:4′,5′]pyrrolo[2′,3′: 5,6][1,3]diazepino[1,7-a]indol-8(5H)-one] are 356 nM, 270 nM and 591 nM.
The like results for `CC(C)n1c2c(c3c(N)ncnc31)-c1cc(C3CC3)nn1C(=O)NC2` [Example 106, 12-Amino-2-cyclopropyl-8-isopropyl-7,8-dihydropyrazolo[1,5-c]pyrimido[5′,4′:4,5]pyrrolo[3,2-e][1,3]diazepin-5(6H)-one] were, in that order, 404 nM, 2420 nM and 3270 nM.
`CC(C)n1c2c(c3c(N)ncnc31)-c1noc(C3CC3)c1CN(C(=O)Cc1ccccc1)C2` [Example 39, 1-(11-amino-3-cyclopropyl-7-isopropyl-6,7-dihydroisoxazolo[4,3-c]pyrimido[5′,4′:4,5]pyrrolo[3,2-e]azepin-5(4H)-yl)-2-phenylethan-1-one]: the IC50 against RET kinase Wild Type is 893 nM; against G810R mutant RET kinase it was 3070 nM; against G810S mutant RET kinase, 4140 nM.
Regarding `CC(C)n1c2c(c3c(N)ncnc31)-c1ccc(NC(=O)CC3CC3)cc1C(=O)NC2` [Example 48, N-(12-amino-8-isopropyl-5-oxo-5,6,7,8-tetrahydrobenzo[c]pyrimido[5′,4′:4,5]pyrrolo[3,2-e]azepin-3-yl)-2-cyclopropylacetamide], the IC50 on RET kinase Wild Type came to 2440 nM; against G810R mutant RET kinase, 7880 nM.
As for `CC(C)n1c2c(c3c(N)ncnc31)-c1ccc(Cl)c(F)c1C(=O)NC2` [Example 50, 12-amino-3-chloro-4-fluoro-8-isopropyl-7,8-dihydrobenzo[c]pyrimido[5′,4′:4,5]pyrrolo[3,2-e]azepin-5(6H)-one], the IC50 against RET kinase Wild Type came out at 2180 nM; at G810R mutant RET kinase, 2570 nM; at G810S mutant RET kinase it was 5080 nM.
Consider `CC(C)n1c2c(c3c(N)ncnc31)-c1ccc(NC(=O)NC3CC3)cc1C(=O)NC2` [Example 49, 1-(12-amino-8-isopropyl-5-oxo-5,6,7,8-tetrahydrobenzo[c]pyrimido[5′,4′:4,5]pyrrolo[3,2-e]azepin-3-yl)-3-cyclopropylurea], for which inhibition against RET kinase Wild Type was half-maximal at 8420 nM (IC50).
As to `COc1ccc2c(c1)cc1n2C(=O)NCc2c-1c1c(N)ncnc1n2C(C)C` [Example 85, 1-amino-5-isopropyl-12-methoxy-6,7-dihydropyrimido[5″,4″:4′,5′]pyrrolo[2′,3′:5,6][1,3]diazepino[1,7-a]indol-8(5H)-one], the IC50 came out at 389 nM on RET kinase Wild Type, 501 nM against G810R mutant RET kinase and 960 nM against G810S mutant RET kinase.
In the same order, the values of `Cc1cc(NC(=O)c2ccc3cc4n(c3c2)CCCc2c-4c3c(N)ncnc3n2C(C)C)nn1C` [Example 98, 1-amino-N-(1,5-dimethyl-1H-pyrazol-3-yl)-5-isopropyl-5,6,7,8-tetrahydropyrimido[5″,4″:4′,5′]pyrrolo[3′,2′: 3,4]azepino[1,2-a]indole-11-carboxamide] are 2210 nM, 4070 nM and 7950 nM.

(Values after US11964988B2, “Fused heterocyclic compounds as RET kinase inhibitors” (ARRAY BIOPHARMA INC., priority 2018, dated 2024).)
